Reference: US11382904B2, “Therapeutic drug for diseases related to endoplasmic reticulum cell death in corneal endothelium” (KYOTO PREFECTURAL PUBLIC UNIVERSITY CORPORATION, priority 2013, dated 2022)
Entries after “also recorded” stand apart in the source; their conditions may differ.

Columns and labels:
[1] = system: corneal endothelial cells with Fuchs' endothelial corneal dystrophy (iFECD); test: Annexin V positive apoptosis cells by flow cytometry, iFECD; format: cell-based, human; conditions: for TGFβ2-induced increase of annexin V positive apoptotic cells, effect of inhibitor: TGFβ2 plus inhibitor, 24 hours
Description: (§1) The human corneal endothelial cells (iHCEC) or corneal endothelial cells with Fuchs' endothelial corneal dystrophy (iFECD) prepared in the Preparation Examples were seeded on a culture dish coated with FNC Coating Mix and culture for about 3 days until reaching sub-confluence under the condition of 5% CO2 at 37° C. Furthermore, TGFβ2 and SB431542 were added and the cells were incubated for 24 hours under the condition of 5% CO2 at 37° C. Cells were peeled off with ACCUMAX. Annexin V or PI positive cells were measured by using Annexin V and PI and a flow cytometer (FACS Aria II (BD Biosciences, Franklin Lakes, N.J.)) with MEBCYTO Apoptosis Kit (Annexin V-FITC Kit) 100 test (4700, MEDICAL & BIOLOGICAL LABORATORIES).
The human corneal endothelial cells (iHCEC) or corneal endothelial cells with Fuchs' endothelial corneal dystrophy (iFECD) prepared in the Preparation Examples were seeded on a culture dish coated with FNC Coating Mix and culture for about 3 days until reaching sub-confluence under the condition of 5% CO2 at 37° C. Furthermore, TGFβ2, SB431542 and TGFβ signal inhibitor A-83-01 (Wako, Osaka; catalog No: 018-22521), ALK5 inhibitor (Wako catalog No: 012-23021; CAS No. 446859-33-2; 2-(3-(6-methylpyridine-2-yl)-1H-pyrazole-4-yl)-1,5-naphthyridine) were added and the cells were incubated for 24 hours under the condition of 5% CO2 at 37° C. The cells were peeled off with ACCUMAX. Annexin V or PI positive cells were measured by using annexin V and propidium iodide (PI) with a flow cytometer (FACS Aria II (BD Biosciences, Franklin Lakes, N.J.)).

[2] = system: corneal endothelial cells with Fuchs' endothelial corneal dystrophy (iFECD); format: cell-based, human
Description: The human corneal endothelial cells (iHCEC) or corneal endothelial cells with Fuchs' endothelial corneal dystrophy (iFECD) prepared in the Preparation Examples were seeded on a culture dish coated with FNC Coating Mix and cultured for about 3 days until reaching sub-confluence under the condition of 5% CO2 at 37° C. Furthermore, TGFβ2, SB431542 and TG were added and the cells were incubated for 24 hours under the condition of 5% CO2 at 37° C. Cell morphology and apoptosis were then observed under a phase difference microscope.

[3] = system: iHCEC; test: Western blot of apoptosis associated proteins after staurosporine stimulation; format: cell-based, human; conditions: 15 minutes to 4 hours after staurosporine stimulation
Description: Caspase 9, caspase 3 and poly(ADP-ribose) polymerase (PARP) were assessed by Western blot in iHCEC stimulated with a mitochondrial stress stimulant staurosporine (abcam, ab120056) in order to assess the involvement of mitochondrial failure in apoptosis.
A stimulation was applied with staurosporine to induce a mitochondrial disorder to examine the chronological change.
Western blot was performed in accordance with the descriptions in Example 2. The following antibodies were used in addition to those used in Example 2.

[4] = system: corneal endothelial cells with Fuchs' endothelial corneal dystrophy (iFECD); test: Aggresome measurement by flow cytometry (ProteoStat Aggresome Detection Kit); format: cell-based, human; conditions: TGFβ2 10 ng/ml, 24 hours
Description: 1×10^5 human corneal endothelial cells (iHCEC) or corneal endothelial cells with Fuchs' endothelial corneal dystrophy (iFECD) were seeded onto a 6 well plate coated with an FNC Coating Mix and cultured for about 2 days until reaching sub-confluence under the condition of 5% CO2 at 37° C. Furthermore, TGFβ2 (10 ng/ml; R&D SYSTEMS) was added and the cells were incubated for 24 hours under the condition of 5% CO2 at 37° C. The cells were then peeled off with ACCUMAX™ (Funakoshi), and aggresomes were measured with a flow cytometer (FACS Aria II (BD Biosciences, Franklin Lakes, N.J.) by using a ProteoStat® Aggresome Detection Kit: (EZN-51035-K100, Enabling Discovery in Life Science®).

[5] = system: human corneal endothelial cells (iHCEC); test: Annexin V positive apoptosis cells by flow cytometry, iHCEC; format: cell-based; conditions: after TGFβ stimulation (11.1±0.6% before stimulation)
Description: Further, it is known as the knowledge of the inventors that PERK phosphorylation and ATF6 cleavage were increased more in iFECD than in iHCEC by TGFβ. In order to investigate the involvement of TGFβ signaling in apoptosis, cells were treated with TGFβ and annexin V positive apoptosis cells were assessed by flow cytometry. […] Meanwhile, it is known that TGFβ increases annexin V positive cells after a stimulation in iFECD relative to the number prior to a TGFβ stimulation (as exemplary data, 19.4±1.4% prior to stimulation and 29.9±1.5% after stimulation, p<0.01). In addition thereto, it is shown that expression of the chaperone GRP78 is elevated. Further, it is shown that the expression of CHOP is elevated and apoptosis is induced by ER stress. […]
as §1, with “Furthermore, TGFβ2 and SB431542 were added and the cells were incubated for 24 hours under the condition of 5% CO2 at 37° C. Cells were peeled off with ACCUMAX.” left out

[6] = system: iHCEC and iFECD; test: Western blot of ER stress markers after TGFβ2 stimulation; format: cell-based, human
Description: Western blot: Electrophoresis was applied to a protein extracted and obtained in a RIPA buffer with 7.5% polyacrylamide. The isolated protein was transferred onto a PVDF membrane (PALL LIFE SCIENCE (catalog number: EH-2222)). A Tris buffered saline (10 mM Tris-HCl, pH 7.4; 100 mM NaCl) (TBS-T) comprising 0.1% (vol/vol) polyethylene sorbitan monolaurate (Nacalai Tesque, catalog number: 28353-85) complemented with 5% NON FAT DRY MILK (CELL SIGNALING, catalog number: 9999) and a blotted membrane were incubated for 1 hour for a blocking operation. The membrane was immersed in anti-GRP78 antibodies diluted 1000 fold with TBS-T complemented with 5% NON FAT DRY MILK and reacted for 1 hour at room temperature. After washing three times with TBS-T and incubating with a mouse-IgG antibody HRP complex (CELL SIGNALING (catalog number: 7074P2)) and washing, a band illuminated with an ECL-ADVAVCE Western Blotting Detection Kit (GE Healthcare Japan (catalog number: RPN2135V)) was detected.
Cells were stimulated for 24 hours with 10 ng/ml TGFβ2 (R&D SYSTEMS). Further, cells stimulated for 24 hours with 10 μM of thapsigargin (TG; Alomone Laboratories Ltd., Jerusalem, Israel) were used as a positive control of ER stress.
Cells were stimulated with 10 ng/ml TGFβ2 (R&D SYSTEMS). Further, cells stimulated with thapsigargin (TG; Alomone Laboratories Ltd., Jerusalem, Israel) were used as a positive control of ER stress.
In the present Example, a Western blot was performed as in Example 2 to investigate the expression of the molecular chaperone GRP78 and CHOP involved with apoptosis due to an ER stress response in order to confirm that a stronger ER stress is elicited by TGF-β in Fuchs' endothelial corneal dystrophy. Further, expression of phosphorylated PERK and ATF6 involved in stress signaling on an endoplasmic reticulum membrane was also examined therewith. A stimulation was applied with 10 ng/ml of TGFβ2 (R&D SYSTEMS). The chronological change was also examined therewith.

[7] = 10 ng/ml TGFβ2, 3 and 6 hours, more significant in iFECD than iHCEC

Cc1cccc(-c2nn(C(=S)Nc3ccccc3)cc2-c2ccnc3ccccc23)n1 [A-83-01, 3-(6-methyl-2-pyridinyl)-N-phenyl-4-(4-quinolinyl)-1H-pyrazole-1-carbothioamide]
TGFβ2-induced increase of annexin V positive apoptotic cells, effect of inhibitor [1]: suppress apoptotic cells

Cc1cccc(-c2n[nH]cc2-c2ccc3ncccc3n2)n1 [ALK5 inhibitor, 2-(3-(6-methylpyridine-2-yl)-1H-pyrazole-4-yl)-1,5-naphthyridine]
TGFβ2-induced increase of annexin V positive apoptotic cells, effect of inhibitor [1]: suppress apoptotic cells

NC(=O)c1ccc(-c2nc(-c3ccc4c(c3)OCO4)c(-c3ccccn3)[nH]2)cc1 [SB431542, 4-[4-(1,3-benzodioxole-5-yl)-5-(2-pyridinyl)-1H-imidazole-2-yl]benzamide]
floating cells induced by TG (thapsigargin), effect of inhibitor ([2]; iFECD, TG stimulation, 24 hours): not cancelled | floating cells (cell damage) induced by TGFβ2, effect of inhibitor ([2]; iFECD, TGFβ2 stimulation, 24 hours): cancelled | TGFβ2-induced increase of annexin V positive apoptotic cells, effect of inhibitor [1]: cancelled; also recorded: suppresses apoptosis

C/C=C(/C)C(=O)O[C@H]1C(C)=C2[C@H]([C@@H]1OC(=O)CCCCCCC)[C@@](C)(OC(C)=O)C[C@H](OC(=O)CCC)[C@@]1(O)[C@H]2OC(=O)[C@@]1(C)O [TG, thapsigargin]
cell damage / floating cells caused by the stimulant [2]: large amount of floating cells

CN[C@@H]1C[C@H]2O[C@@](C)([C@@H]1OC)n1c3ccccc3c3c4c(c5c6ccccc6n2c5c31)C(=O)NC4 [staurosporine]
activation of caspase 9, caspase 3 and PARP [3]: activate

TGFβ2: transforming growth factor-β2 (R&D SYSTEMS) used to stimulate cells at 10 ng/ml
increase of aggresomes (fluorescence intensity) [4]: 1.11 fold | cell damage / floating cells caused by the stimulant [2]: damaged | percentage of annexin V positive apoptosis cells after stimulation ([1]; after TGFβ stimulation (19.4±1.4% prior to stimulation), p<0.01): 29.9±1.5% | percentage of annexin V positive apoptosis cells after stimulation [5]: 12.3±0.5% | expression of CHOP ([6]; 10 ng/ml TGFβ2, 3 and 6 hours): increases | expression of the chaperone GRP78 ([6]; 10 ng/ml TGFβ2, 3 and 6 hours): increases | expression of ATF6 [6, 7]: promotes expression | phosphorylation of PERK (ER stress sensor) [6, 7]: promotes phosphorylation | expression of chaperone GRP78 and stress sensor IRE1 ([6]; 10 ng/ml TGFβ2, iFECD and normal cells, level high especially in iFECD): induced
